This experiment has as its target DDE (fibrin-derived polypeptide) (Homo sapiens, UniProt P02671+P02675+P02679). Kind of experiment: Direct binding fluorescence polarization (FP) assay using 5-carboxyfluorescein labeled peptides. The note with it: 20 nM CF5-labeled peptide, serial dilutions of DDE, anisotropy read at 485 nm; read-out: KD (μM) Direct Binding (n = 2).

Each structure is given as a SMILES string. Bridge positions count the residues as written; N and C are the ends. Square brackets hold non-standard residues; d marks the D form. Peptide text beside a SMILES is read from it. * marks the point of attachment. αGalNAc = CC(=O)N[C@@H]1[C@@H](O)[C@@H](O)[C@@H](CO)O[C@@H]1*; 5FAM = O=C1OC2(c3ccc(O)cc3Oc3cc(O)ccc32)c2ccc(C(=O)*)cc21; AEEA = NCCOCCOCC(=O)O

Chain of DDE (fibrin-derived polypeptide) (P02671 124-216): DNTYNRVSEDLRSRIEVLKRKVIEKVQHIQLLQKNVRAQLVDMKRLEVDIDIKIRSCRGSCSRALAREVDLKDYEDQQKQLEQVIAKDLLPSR
Chain of DDE (fibrin-derived polypeptide) (P02675 164-491): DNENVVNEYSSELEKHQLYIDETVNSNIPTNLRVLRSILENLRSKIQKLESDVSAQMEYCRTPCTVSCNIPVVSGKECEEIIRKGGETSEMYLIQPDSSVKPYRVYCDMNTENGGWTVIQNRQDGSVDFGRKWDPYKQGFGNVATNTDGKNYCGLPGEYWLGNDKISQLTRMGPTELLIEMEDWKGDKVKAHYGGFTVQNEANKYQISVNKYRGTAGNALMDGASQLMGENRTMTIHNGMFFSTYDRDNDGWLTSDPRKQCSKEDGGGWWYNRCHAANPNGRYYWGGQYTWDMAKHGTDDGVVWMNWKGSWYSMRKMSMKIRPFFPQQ
Chain of DDE (fibrin-derived polypeptide) (P02679 114-432): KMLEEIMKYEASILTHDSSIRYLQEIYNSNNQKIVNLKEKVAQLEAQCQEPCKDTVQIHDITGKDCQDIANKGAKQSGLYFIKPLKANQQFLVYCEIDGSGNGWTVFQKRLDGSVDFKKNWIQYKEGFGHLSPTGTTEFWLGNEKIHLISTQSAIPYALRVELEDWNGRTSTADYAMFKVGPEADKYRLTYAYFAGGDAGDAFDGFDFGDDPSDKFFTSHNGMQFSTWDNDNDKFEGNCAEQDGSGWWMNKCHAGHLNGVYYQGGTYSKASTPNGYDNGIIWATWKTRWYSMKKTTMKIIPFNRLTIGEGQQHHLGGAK
Chain of DDE (fibrin-derived polypeptide) (P02671 36-97): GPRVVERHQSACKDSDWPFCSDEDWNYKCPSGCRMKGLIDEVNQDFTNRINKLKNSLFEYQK
Chain of DDE (fibrin-derived polypeptide) (P02675 45-152): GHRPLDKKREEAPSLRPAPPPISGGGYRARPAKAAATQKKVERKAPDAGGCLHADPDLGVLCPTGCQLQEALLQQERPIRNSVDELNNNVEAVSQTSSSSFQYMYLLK
Chain of DDE (fibrin-derived polypeptide) (P02679 27-88): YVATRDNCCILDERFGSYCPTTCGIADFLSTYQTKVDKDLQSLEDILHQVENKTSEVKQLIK

Usually Kd stands for a measure of binding affinity in units of concentration. As to `CC(=O)N[C@H]1[C@@H](OC[C@H](NC(C)=O)C(=O)N[C@@H](Cc2c[nH]c3ccccc23)C(=O)N[C@@H](CCC(N)=O)C(=O)N2CCC[C@H]2C(=O)N[C@H]2CSSC[C@@H](C(=O)N[C@@H](Cc3c[nH]c4ccccc34)C(=O)N[C@@H](CC(=O)O)C(=O)N3CCC[C@H]3C(=O)NCC(=O)NCC(=O)NCC(=O)N[C@@H](CCCCNC(=O)c3ccc4c(c3)C(=O)OC43c4ccc(O)cc4Oc4cc(O)ccc43)C(N)=O)NC(=O)[C@H](Cc3ccccc3)NC(=O)[C@H]([C@@H](C)O)NC(=O)[C@H](Cc3c[nH]c4ccccc34)NC(=O)[C@H](CO)NC(=O)[C@H](CCC(=O)O)NC(=O)[C@H](Cc3c[nH]c4ccccc34)NC(=O)[C@@H]3CCCN3C2=O)O[C@H](CO)[C@H](O)[C@@H]1O` [Seq027-CF5] (Ac-S(αGalNAc)WQPCPWESWTFCWDPGGGK(5FAM)-NH2; disulfide 5-13), the Kd worked out at 0.5 µM.
Turning to `CC(=O)N[C@@H](CO)C(=O)NCC(=O)N[C@@H](CO)C(=O)NCC(=O)N[C@@H](CO)C(=O)NCC(=O)N[C@@H](CO)C(=O)NCC(=O)N[C@@H](Cc1c[nH]c2ccccc12)C(=O)N[C@@H](CCC(N)=O)C(=O)N1CCC[C@H]1C(=O)N[C@H]1CSSC[C@@H](C(=O)N[C@@H](Cc2c[nH]c3ccccc23)C(=O)N[C@@H](CC(=O)O)C(=O)N2CCC[C@H]2C(=O)NCC(=O)NCC(=O)NCC(=O)N[C@@H](CCCCNC(=O)c2ccc3c(c2)C(=O)OC32c3ccc(O)cc3Oc3cc(O)ccc32)C(N)=O)NC(=O)[C@H](Cc2ccccc2)NC(=O)[C@H]([C@@H](C)O)NC(=O)[C@H](Cc2c[nH]c3ccccc23)NC(=O)[C@H](CO)NC(=O)[C@H](CCC(=O)O)NC(=O)[C@H](C)NC(=O)[C@@H]2CCCN2C1=O` [Seq040-CF5] (Ac-SGSGSGSGWQPCPAESWTFCWDPGGGK(5FAM)-NH2; disulfide 12-20), the Kd worked out at 0.53 µM.
The figure for `CC(=O)NCC(=O)NCC(=O)N[C@@H](CCCNC(=N)N)C(=O)NCC(=O)N[C@@H](Cc1c[nH]c2ccccc12)C(=O)N[C@@H](CCC(N)=O)C(=O)N1CCC[C@H]1C(=O)N[C@H]1CSSC[C@@H](C(=O)N[C@@H](Cc2c[nH]c3ccccc23)C(=O)N[C@@H](CC(=O)O)C(=O)N2CCC[C@H]2C(=O)NCC(=O)NCC(=O)NCC(=O)N[C@@H](CCCCNC(=O)c2ccc3c(c2)C(=O)OC32c3ccc(O)cc3Oc3cc(O)ccc32)C(N)=O)NC(=O)[C@H](Cc2ccccc2)NC(=O)[C@H]([C@@H](C)O)NC(=O)[C@H](Cc2c[nH]c3ccccc23)NC(=O)[C@H](CO)NC(=O)[C@H](CCC(=O)O)NC(=O)[C@H](Cc2c[nH]c3ccccc23)NC(=O)[C@@H]2CCCN2C1=O` [Seq015-CF5] (Ac-GGRGWQPCPWESWTFCWDPGGGK(5FAM)-NH2; disulfide 8-16) is 0.29 µM; for `CC(=O)N[C@@H](CO)C(=O)NCC(=O)N[C@@H](CO)C(=O)NCC(=O)NCCOCCOCC(=O)N[C@@H](Cc1c[nH]c2ccccc12)C(=O)N[C@@H](CCC(N)=O)C(=O)N1CCC[C@H]1C(=O)N[C@H]1CSSC[C@@H](C(=O)N[C@@H](Cc2c[nH]c3ccccc23)C(=O)N[C@@H](CC(=O)O)C(=O)N2CCC[C@H]2C(=O)NCC(=O)NCC(=O)NCC(=O)N[C@@H](CCCCNC(=O)c2ccc3c(c2)C(=O)OC32c3ccc(O)cc3Oc3cc(O)ccc32)C(N)=O)NC(=O)[C@H](Cc2ccccc2)NC(=O)[C@H]([C@@H](C)O)NC(=O)[C@H](Cc2c[nH]c3ccccc23)NC(=O)[C@H](CO)NC(=O)[C@H](CCC(=O)O)NC(=O)[C@H](C)NC(=O)[C@@H]2CCCN2C1=O` [Seq045-CF5] (Ac-SGSG[AEEA]WQPCPAESWTFCWDPGGGK(5FAM)-NH2; disulfide 9-17) it is 0.57 µM.

Values taken from patent US8466107B2, “Fibrin-binding peptides and conjugates thereof” (Bracco Imaging SpA, priority 2006, dated 2013).
